Experiments:
Assay type in all cases: cell-based
[1] = tested on: NCI-H520; assay: 10-day proliferation (CTG), equimolar Compound A + Compound B (Example 1); settings: Homo sapiens, NCI-H520, 240 h, 10 days, single agent or 1:1 combo; for IC30: read-out: gIC30; for IC40: read-out: gIC40; for IC50: read-out: gIC50; for IC60: read-out: gIC60; for IC70: read-out: gIC70; for IC80: read-out: gIC80; for IC90: read-out: gIC90; for IC100: read-out: gIC100
Procedure: (§1) A 10-day proliferation assay was performed in a panel of 5 MTAP-deficient and 2 wild type non-small cell lung and bladder cancer cell lines. Optimal cell seeding for all cell lines was determined by assessing the growth over a range of seeding densities in a 384-well format to identify conditions that permitted proliferation for 10 days. Cells were then plated at the optimal seeding density and treated with 20-point, two-fold dilution series of Compound A, sovilnesib (“Compound B”), or an equimolar combination of Compound A and Compound B. Concentrations tested for Compound A and Compound B alone or in combination ranged from 0.038 nM to 20,000 nM. A plate of cells was harvested at the time of compound addition to quantify the number of cells at the start of the combination (T0). For cell quantification, the harvested cells were lysed with Promega CellTiter-Glo (CTG) reagent according to the manufacturer's protocol and the chemiluminescent signal was detected on a Synergy Neo plate reader. CTG estimates cell number through detection of cellular ATP levels. Cells were incubated with the drug combinations at 37° C. with 5% CO2 for 10 days. Cells were then lysed with CTG and the chemiluminescent signal was measured.
(§2) CTG values obtained after the 10-day treatment were background subtracted and expressed as a percent of the T0 value. Data were plotted against compound concentration and fit with a four-parameter equation to generate dose response curves for each single agent and the equimolar combination. Growth ICx (gICx) values ranging from gIC30 to gIC100 were interpolated from the fitted curves. Synergistic growth inhibition was assessed by determination of Combination Index (CI) values at these various points across the titration using the mutually non-exclusive equation [Chou, 1983; Chou, 1981] shown below where A equals the gIC value of Compound A, B equals the gICx value of Compound B, and A+B or B+A equals the gICx value of the equimolar combination. A Combination Index value less than 1.0 was considered synergistic.
(§3) Synergy was measured for equimolar combinations of Compound A and Compound B utilizing the mutually non-exclusive Combination Index equation across gICx values ranging from gIC30-gIC100. Combination Index values are shown for: NCI-H520 (4A) and TCCSUP (41B).

[2] = tested on: TCCSUP; assay: as above; settings: Homo sapiens, TCC-SUP, 240 h, 10 days, single agent or 1:1 combo; for IC100: read-out: gIC100, heading: gIC100; for IC30: read-out: gIC30; for IC40: read-out: gIC40; for IC50: read-out: gIC50; for IC60: read-out: gIC60; for IC70: read-out: gIC70; for IC80: read-out: gIC80; for IC90: read-out: gIC90
Procedure: as §1, §2, §3

[3] = tested on: SW900; assay: 10-day proliferation (CTG), Compound B titration + 1000 nM Compound A, Bliss (Example 2); parameters: key: GDI, -100 to 100; 0 = cell number at T0
Procedure: (§4) A 10-day proliferation assay was performed in a panel of 5 MTAP-deficient and 2 wild type non-small cell lung and bladder cancer cell lines. Optimal cell seeding for all cell lines was determined by assessing the growth over a range of seeding densities in a 384-well format to identify conditions that permitted proliferation for 10 days. Cells were then plated at the optimal seeding density and treated with 20-point, two-fold dilution series of Compound B in combination with a 1000 nM fixed concentration of Compound A. Single agent titrations for Compound A and Compound B were included for comparison. Concentrations tested for Compound A and Compound B alone or in combination ranged from 0.038 nM to 20,000 nM. A plate of cells was harvested at the time of compound addition to quantify the number of cells at the start of the combination (T0). For cell quantification, the harvested cells were lysed with Promega CellTiter-Glo (CTG) reagent according to the manufacturer's protocol and the chemiluminescent signal was detected as described in Example 1 above. Cells were incubated with the drug combinations at 37° C. with 5% CO2 for 10 days. Cells were then lysed with CTG and the chemiluminescent signal was measured.
(§5) CTG values obtained after the 10-day treatment were background subtracted and expressed as a percent of the T0 value set at 100%. Data were plotted against compound concentration and fit with a four-parameter equation to generate single agent dose response curves. Percent inhibition was determined for each combination and single agent concentration compared to a DMSO control. In addition, the overall net growth or death of the cells was calculated and reported as a growth death index (GDI) value on a scale of −100 to 100 with the midpoint (0) being the number of cells at the beginning of the combination (T0).
(§6) Predicted inhibition was calculated using (Ea+Eb)−(Ea*Eb) where E equals the effect (inhibition) of each single agent (a and b). A difference between the observed inhibition percentage and the predicted inhibition percentage greater than 10% was considered synergistic. A Bliss score was only calculated for combinations eliciting >20% growth inhibition (GDI value <80). Since Bliss is calculated based on growth inhibition, scores within cytotoxic dose ranges may not accurately reflect synergistic cytotoxicity.
(§7) Synergy was measured across the Compound B titration with 1000 nM Compound A by Bliss Independence analysis. Bliss scores >10 are indicated by “*” and are considered synergistic. […] Synergy as reported using Bliss may be underrepresented within cytotoxic dose ranges. Growth death index values are shown for the combination titration and each single agent Compound A (Cmpd A) and Compound B (Cmpd B) on a scale of −100 to 100 with the midpoint (0) being the number of cells at the beginning of the combination (T0).

[4] = tested on: UMUC5; assay: as above; parameters: key to GDI: GDI, -100 to 100; 0 = cell number at T0
Procedure: as §4, §5, §6, §7

[5] = Cmpd B 0.04 nM, combo: + 1000 nM Cmpd A
[6] = Cmpd B 0.1 nM, combo: + 1000 nM Cmpd A
[7] = Cmpd B 0.2 nM, combo: + 1000 nM Cmpd A
[8] = Cmpd B 0.3 nM, combo: + 1000 nM Cmpd A
[9] = Cmpd B 0.6 nM, combo: + 1000 nM Cmpd A
[10] = Cmpd B 1.2 nM, combo: + 1000 nM Cmpd A
[11] = Cmpd B 2.4 nM, combo: + 1000 nM Cmpd A
[12] = Cmpd B 4.9 nM, combo: + 1000 nM Cmpd A
[13] = Cmpd B 9.8 nM, combo: + 1000 nM Cmpd A
[14] = Cmpd B 19.5 nM, combo: + 1000 nM Cmpd A
[15] = Cmpd B 39.1 nM, combo: + 1000 nM Cmpd A
[16] = Cmpd B 78.1 nM, combo: + 1000 nM Cmpd A
[17] = Cmpd B 156.3 nM, combo: + 1000 nM Cmpd A
[18] = Cmpd B 312.5 nM, combo: + 1000 nM Cmpd A
[19] = Cmpd B 625 nM, combo: + 1000 nM Cmpd A
[20] = Cmpd B 1250 nM, combo: + 1000 nM Cmpd A
[21] = Cmpd B 2500 nM, combo: + 1000 nM Cmpd A
[22] = Cmpd B 5000 nM, combo: + 1000 nM Cmpd A
[23] = Cmpd B 10000 nM, combo: + 1000 nM Cmpd A
[24] = Cmpd B 20000 nM, combo: + 1000 nM Cmpd A

Nc1nc(=O)n(-c2ccccc2Cl)c2nc(C(F)(F)F)ccc12 [Compound A]
IC30 [1]: 20 µM | IC40 [1]: 20 µM | IC50 [1]: 20 µM | IC60 [1]: 20 µM | IC70 [1]: 20 µM | IC80 [1]: 20 µM | IC90 [1]: 20 µM | IC100 [1]: 20 µM | IC100 [2]: > 20 µM | IC30 [2]: 20 µM | IC40 [2]: 20 µM | IC50 [2]: 20 µM | IC60 [2]: 20 µM | IC70 [2]: 20 µM | IC80 [2]: 20 µM | IC90 [2]: 20 µM | GDI ([3]; single agent, 1000 nM Cmpd A): 99 | GDI ([4]; single agent, 1000 nM Cmpd A): 59

Cc1cc(NC(=O)c2ccc(NS(=O)(=O)CCO)cc2N2CCC3(CC2)CC3)nc(N2CCC(F)(F)CC2)n1 [Compound B, N-(2-(4,4-difluoropiperidin-1-yl)-6-methylpyrimidin-4-yl)-4-((2-hydroxyethyl)sulfonamido)-2-(6-azaspiro[2.5]octan-6-yl)benzamide]
IC30 [1]: 2.81 µM | IC40 [1]: 4.16 µM | IC50 [1]: 5.8 µM | IC60 [1]: 7.73 µM | IC70 [1]: 9.98 µM | IC80 [1]: 12.5 µM | IC90 [1]: 15.5 µM | IC100 [1]: 18.7 µM | IC100 [2]: > 20 µM | IC30 [2]: 0.091 µM | IC40 [2]: 0.107 µM | IC50 [2]: 0.126 µM | IC60 [2]: 0.15 µM | IC70 [2]: 0.183 µM | IC80 [2]: 0.24 µM | IC90 [2]: 0.405 µM | GDI [3, 5]: 100 | GDI [3, 6]: 100 | GDI [3, 7]: 100 | GDI [3, 8]: 100 | GDI [3, 9]: 100 | GDI [3, 10]: 100 | GDI [3, 11]: 99 | GDI [3, 12]: 100 | GDI [3, 13]: 100 | GDI [3, 14]: 100 | GDI [3, 15]: 99 | GDI [3, 16]: 100 | GDI [3, 17]: 100 | GDI [3, 18]: 100 | GDI [3, 19]: 86 | GDI [3, 20]: 89 | GDI [3, 21]: 83 | GDI [3, 22]: 75 | GDI [3, 23]: 64 | GDI [3, 24]: 28 | GDI [4, 5]: 97 | GDI [4, 6]: 100 | GDI [4, 7]: 100 | GDI [4, 8]: 100 | GDI [4, 9]: 100 | GDI [4, 10]: 96 | GDI [4, 11]: 100 | GDI [4, 12]: 99 | GDI [4, 13]: 100 | GDI [4, 14]: 100 | GDI [4, 15]: 100 | GDI [4, 16]: 100 | GDI [4, 17]: 75 | GDI [4, 18]: 26 | GDI [4, 19]: 17 | GDI [4, 20]: 16 | GDI [4, 21]: 15 | GDI [4, 22]: 5 | GDI [4, 23]: −87 | GDI [4, 24]: −91 | single agent dose sufficient to maximally inhibit cell growth ([4]; single agent): 5 µM
